Earlier results in paper PMC3989431 (Peptides, 2013).

System: H. zea pupae
Settings: earlier in vivo bioassay

## AWFGPRLa
  in vivo activity: without in vivo activity
